From the NIST ThermoML archive (doi:10.1021/acs.jced.8b00213)

Columns and labels:
[1] = refractive index (Na D-line) (dimensionless); xn = mol fraction of the nth substance listed; conditions: 100 kPa, Liquid, Standard Abbe refractometry, x1 = 0.25
[2] = xn = mol fraction of the nth substance listed; conditions: 100 kPa, Liquid, x1 = 0.25; for electrical conductivity: Alternating current cell with electrodes; for viscosity: Falling or rolling sphere viscometry; for speed of sound: Single path-length method; for mass density: Vibrating tube method

C[N+](C)(C)Cc1ccccc1.[Cl-] [trimethylbenzylammonium chloride] + OCCOCCOCCO
Conditions | electrical conductivity, [2] [S/m] | mass density, [2] [kg/m3] | refractive index, [1] | speed of sound, [2] [m/s] | viscosity, [2] [mPa·s]
283.15 K | 0.048 | 1127.45 | 1.4923 | 1776.2 | 620.1
288.15 K | 0.063 | 1124.08 | 1.4908 | 1761 | 470.8
293.15 K | 0.081 | 1120.7 | 1.4894 | 1746.2 | 370.5
298.15 K | 0.101 | 1117.31 | 1.488 | 1731.4 | 308.8
303.15 K | 0.124 | 1113.93 | 1.4865 | 1716.9 | 214.3
308.15 K | 0.152 | 1110.57 | 1.4849 | 1702.8 | 155.7
313.15 K | 0.187 | 1107.21 | 1.4836 | 1688.5 | 115.6
318.15 K | 0.226 | 1103.87 | 1.4821 | 1674.6 | 87.8
323.15 K | 0.278 | 1100.54 | 1.4807 | 1660.8 | 68.5
328.15 K | 0.325 | 1097.22 | 1.4792 | 1647.2 | 54.9
333.15 K | 0.377 | 1093.9 | 1.4778 | 1633.6 | 43.5
338.15 K | 0.44 | 1090.59 | 1.4763 | 1620.1 | 34.3
343.15 K | 0.506 | 1087.29 | 1.4749 | 1606.6 | 27.4
